# Measured values reported in patent US6727288B2, “Method for treating bone fracture” (Juneng Industry Co., Ltd., priority 2001, dated 2004).
# Marks after values point to notes of the source that are not given here.
# What was measured:
# osteoblasts (OB2) [1] = assay: Osteoblast (OB2) proliferation, MTT method; assay type: cell-based, SD rat; conditions: for A570 (X ± SD): 72 hours, MTT, n = 4
# Method: (§1) 1) Sampling: after a newborn (within 24 hours) SD rat was disinfected, the calvaria were excised under sterilization conditions. The calvaria were predigested by 0.25% trypsin for 10-15 minutes firstly, then oscillated and digested by 0.1% collagenase II at 37° C. for 60 minutes. The cells were collected by centrifugation at 1000 rpm.
# (§2) 2) Cell culture: The isolated cells were inoculated into culture flask at a concentration of 1×10^4/cm^2, wherein the culture solution is 10% of NCS-MEM. The cells were cultured in an incubator with 5% CO2 at 37° C., then passaged until half confluence. The second generation of secondary cells (OB2) were tested for pharmacodynamics.
# (§3) 3) Medicines: Each test medicine was formulated at a concentration of 0.1 mol/L, and sterilized by high pressure for later use.
# (§4) 2.24 g of calcium gluconate was dissolved in 50 ml of deionized water at room temperature. The control group was deionized water.
# OB2 were inoculated into 24 well COSTOR culture plate at a density of 6×10^3 per well. 24 hours later, the above culture solution was replaced by culture solution containing varying concentrations of medicines ranging from 10^−9 to 10^−3 mol/L. 72 hours after adding medicines, the cells were tested through Labsystems Multiskan MS (Finland) )ELISA analyzer by MTT method. OD value at 570 nm was used to reflect cell proliferation.
# [2] = test system: ALP activity of osteoblast (OB2); assay: ALP activity of OB2 cell lysates, para-nitrobenzene phosphate method; assay type: cell-based, SD rat; conditions: 10^−3 mol/L; for ALP activity of osteoblast: n = 4
# Method: as §1, §2, §3, §4
# OB2 was inoculated into 24 well COSTOR culture plate at a density of 2×10^4 per well. 24 hours later, the above culture solution was replaced by medium containing medicines. Then the culture solution was changed every 48 hours until confluence of cells was reached. ALP activity of cell lysates was measured by para-nitrobenzene phosphate method. Content of protein in cell lysates was measured by Coomassie brilliant blue method.
# osteoblasts (OB2) [3] = assay: Mineralization function of OB2, alizarin red nodule count; assay type: cell-based, SD rat; conditions: for Number of mineralization nodules: 14 days, alizarin red, n = 4
# Method: as §1, §2, §3, §4
# OB2 was inoculated into 6 well COSTOR culture plate at a density of 5×10^4 per well. 24 hours later, the above culture solution was replaced by culture solution containing medicines. Then the solution was changed every 48 hours. 14 days later, the cells were fixed and stained with alizarin red.
# [4] = test system: α-COLI mRNA in osteoblast (OB2); assay: mRNA expression of α-COLI in osteoblasts by quantitative RT-PCR; assay type: cell-based, SD rat; conditions: 10^−3 mol/L; for level of α-COLI mRNA compared with control group: quantitative RT-PCR, in words
# Method: 1. Cell Culture: The culture method of primary osteoblast was the same as that of the previous test. OB2 was inoculated at density of 1×10^4 cells/cm^2. […] Culture medium was changed every 48 hours and the medicines were added. Total RNA of the cells was extracted one week later.
# 2. Extraction of RNA: The cells were digested with 0.25% trypsin, and were centrifuged at 1000 rpm for 5 min to collect cell pellets. Total RNA was extracted with TRIzol reagent (Gibco Co.) method.
# 3. Reverse transcriptase polymerase chain reaction (RT-PCR): Access RT-PCR System kit (Promega) was used in the test, following the directions of the kit. The RT-PCR of the reaction mixture was performed in PCR analyzer (Bio-Rad Inc.) at 48° C. for 45 min. Inactivate enzyme at 94° C. for 2 min, then 30 cycles of PCR reaction: […] at 94° C. for degeneration, 1 min at 54° C. for annealing, 2 min at 72° C. for extension, and after the last cycle, 7 min at 72° C. for another extension. 9 μl PCR products were analyzed in 1.5% agarose gel electrophoresis. Then the bands were analyzed by image analysis system (Image Master VDS). Optical density value was calibrated by internal reference-Actin, and the calibration values were analyzed statistically.
# 4. Medicines: Each test medicine was formulated at the concentration of 0.1 mol/L, and sterilized by high pressure for later use. […] Calcium gluconate, Shanghai Huanghai Pharmaceutical Factory, 2.24 g was dissolved in 50 ml deionized water.
# emasculated rat = conditions: in words
compound,measurement,setting,value
[Ca+2].[Cl-].[Cl-] [Calcium chloride],A570 (X ± SD),"osteoblasts (OB2) [1]; test I, 10^−3 mol/L",0.325 ± 0.052
same,A570 (X ± SD),"osteoblasts (OB2) [1]; test I, 10^−5 mol/L",0.277 ± 0.037
same,A570 (X ± SD),"osteoblasts (OB2) [1]; test I, 10^−7 mol/L",0.239 ± 0.005^&
same,A570 (X ± SD),"osteoblasts (OB2) [1]; test I, 10^−9 mol/L",0.237 ± 0.005^&
same,A570 (X ± SD),"osteoblasts (OB2) [1]; test II, 10^−3 mol/L",0.423 ± 0.028***^&
same,A570 (X ± SD),"osteoblasts (OB2) [1]; test II, 10^−5 mol/L",0.324 ± 0.047^&
same,A570 (X ± SD),"osteoblasts (OB2) [1]; test II, 10^−7 mol/L",0.268 ± 0.022^&
same,A570 (X ± SD),"osteoblasts (OB2) [1]; test II, 10^−9 mol/L",0.292 ± 0.023
same,A570 (X ± SD),"osteoblasts (OB2) [1]; test III, 10^−3 mol/L",0.281 ± 0.014
same,A570 (X ± SD),"osteoblasts (OB2) [1]; test III, 10^−5 mol/L",0.268 ± 0.025^&
same,A570 (X ± SD),"osteoblasts (OB2) [1]; test III, 10^−7 mol/L",0.229 ± 0.09
same,A570 (X ± SD),"osteoblasts (OB2) [1]; test III, 10^−9 mol/L",0.267 ± 0.016
same,ALP activity of osteoblast,[2]; Experiment 1,0.119 ± 0.039 U/mg of protein
same,ALP activity of osteoblast,[2]; Experiment 2,0.122 ± 0.08 U/mg of protein
same,ALP activity of osteoblast,[2]; Experiment 3,0.102 ± 0.008 U/mg of protein
same,Number of mineralization nodules,osteoblasts (OB2) [3],6.4 ± 1.673^&
Calcium gluconate,A570 (X ± SD),"osteoblasts (OB2) [1]; test I, 10^−3 mol/L",0.381 ± 0.052
same,A570 (X ± SD),"osteoblasts (OB2) [1]; test I, 10^−5 mol/L",0.351 ± 0.039
same,A570 (X ± SD),"osteoblasts (OB2) [1]; test I, 10^−7 mol/L",0.267 ± 0.009*^&
same,A570 (X ± SD),"osteoblasts (OB2) [1]; test I, 10^−9 mol/L",0.265 ± 0.025
same,A570 (X ± SD),"osteoblasts (OB2) [1]; test II, 10^−3 mol/L",0.359 ± 0.072**^&
same,A570 (X ± SD),"osteoblasts (OB2) [1]; test II, 10^−5 mol/L",0.301 ± 0.051
same,A570 (X ± SD),"osteoblasts (OB2) [1]; test II, 10^−7 mol/L",0.268 ± 0.019*^&
same,A570 (X ± SD),"osteoblasts (OB2) [1]; test II, 10^−9 mol/L",0.248 ± 0.017^&
same,A570 (X ± SD),"osteoblasts (OB2) [1]; test III, 10^−3 mol/L",0.229 ± 0.021
same,A570 (X ± SD),"osteoblasts (OB2) [1]; test III, 10^−5 mol/L",0.242 ± 0.012
same,A570 (X ± SD),"osteoblasts (OB2) [1]; test III, 10^−7 mol/L",0.233 ± 0.021^$
same,A570 (X ± SD),"osteoblasts (OB2) [1]; test III, 10^−9 mol/L",0.229 ± 0.017
same,ALP activity of osteoblast,[2]; Experiment 1,0.115 ± 0.009 U/mg of protein
same,ALP activity of osteoblast,[2]; Experiment 2,0.140 ± 0.016 U/mg of protein
same,ALP activity of osteoblast,[2]; Experiment 3,0.107 ± 0.025 U/mg of protein
same,Number of mineralization nodules,osteoblasts (OB2) [3],6.2 ± 2.588^&
same,Relative expression amount of α-COLI,"[4]; one week, calibrated by β-Actin, X ± SD, n = 3",1.2524 ± 0.377
same,level of α-COLI mRNA compared with control group,[4],no significant difference
calcium L-threonate,effect on proliferation of osteoblast,"osteoblasts (OB2) [1]; 10^−9-10^−3 mol/L, in words",promoting proliferation of osteoblast
same,A570 (X ± SD),"osteoblasts (OB2) [1]; test I, 10^−3 mol/L",0.458 ± 0.019
same,A570 (X ± SD),"osteoblasts (OB2) [1]; test I, 10^−5 mol/L",0.405 ± 0.085
same,A570 (X ± SD),"osteoblasts (OB2) [1]; test I, 10^−7 mol/L",0.401 ± 0.082
same,A570 (X ± SD),"osteoblasts (OB2) [1]; test I, 10^−9 mol/L",0.387 ± 0.087
same,A570 (X ± SD),"osteoblasts (OB2) [1]; test II, 10^−3 mol/L",0.486 ± 0.010
same,A570 (X ± SD),"osteoblasts (OB2) [1]; test II, 10^−5 mol/L",0.449 ± 0.041
same,A570 (X ± SD),"osteoblasts (OB2) [1]; test II, 10^−7 mol/L",0.371 ± 0.047
same,A570 (X ± SD),"osteoblasts (OB2) [1]; test II, 10^−9 mol/L",0.418 ± 0.047
same,A570 (X ± SD),"osteoblasts (OB2) [1]; test III, 10^−3 mol/L",0.386 ± 0.024
same,A570 (X ± SD),"osteoblasts (OB2) [1]; test III, 10^−5 mol/L",0.327 ± 0.034
same,A570 (X ± SD),"osteoblasts (OB2) [1]; test III, 10^−7 mol/L",0.338 ± 0.048
same,A570 (X ± SD),"osteoblasts (OB2) [1]; test III, 10^−9 mol/L",0.316 ± 0.073
same,ALP activity of OB2 versus control group,[2]; in words,higher than that of control group
same,ALP activity of osteoblast,[2]; Experiment 1,0.156 ± 0.002 U/mg of protein
same,ALP activity of osteoblast,[2]; Experiment 2,0.208 ± 0.003 U/mg of protein
same,ALP activity of osteoblast,[2]; Experiment 3,0.164 ± 0.026 U/mg of protein
same,Number of mineralization nodules,osteoblasts (OB2) [3],12.0 ± 3.742
same,number of mineralization nodules versus other groups,"osteoblasts (OB2) [3]; within two weeks, in words",the largest
same,level of α-COLI mRNA compared with control group,[4],increased significantly
same,biomechanical parameters,emasculated rat,significantly increase
same,bone density,emasculated rat,significantly increase
same,content of bone calcium,emasculated rat,significantly increase
